Earlier results, collected in US9371351B2, “Glycomimetics as Pseudomonas aeruginosa lectin inhibitors” (priority 2012, dated 2016).

Biological target: LecB (Pseudomonas aeruginosa, UniProt Q9HYN5)
Details: known value, background; cited from earlier work

LecB, sequence (Q9HYN5 entry or part of it): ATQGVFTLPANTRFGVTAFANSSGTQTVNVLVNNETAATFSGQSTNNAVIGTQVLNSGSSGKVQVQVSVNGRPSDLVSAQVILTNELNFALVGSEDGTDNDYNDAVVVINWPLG

Compound: CC(=O)N[C@H]1C(O)O[C@H](CO)[C@@H](O[C@@H]2O[C@@H](C)[C@@H](O)[C@@H](O)[C@@H]2O)[C@@H]1O[C@@H]1O[C@H](CO)[C@H](O)[C@H](O)[C@H]1O (stereo partly drawn) [Lewis^a trisaccharide, α-Fuc1-4(βGal1-3)-GlcNAc]
- Kd: 210 nM
